According to patent US20250206751A1, “HETEROCYCLIC COMPOUND FOR INDUCING DEGRADATION OF G12D MUTANT KRAS PROTEIN” (Astellas Pharma Inc., priority 2022, published 2025):

Assays:
KRAS G12D protein = target: T1, KRAS G12D protein (Homo sapiens, UniProt P01116, G12D); assay: KRAS degradation activity by Cell ELISA in AsPC-1 (Test Example 1); assay type: cell-based; conditions: AsPC-1 cells, cultured overnight with compound, corrected with β-actin, read-out: DC50 (50% degradation concentration of the amounts of KRAS)
T1 construct: host or cells: AsPC-1
Procedure, shortened: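 AsPC-1 cells (KRAS G12D), 2.0×10^4/well, treated overnight with compound (10 points, 10 μM–0.3 nM final) in RPMI 1640/10% FBS. Fixed cells immunostained for G12D-specific Ras and β-actin, with near-IR fluorescence read. Ras/actin ratio scaled DMSO = 0% and actin-only = 100%, and DC50 fitted by Sigmoid-Emax regression.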

[1] = tested on: phosphorylation of threonine 202 (Thr202) and tyrosine 204 (Tyr204) of ERK; assay: ERK phosphorylation inhibitory effect by Cell ELISA in AsPC-1 (Test Example 2); assay type: cell-based, human; conditions: Homo sapiens, ASPC1, AsPC-1 cells, cultured overnight with compound; 1 μM trametinib taken as 0%
Procedure, shortened: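 AsPC-1 cells (G12D KRAS) treated overnight with compound (10 points, 10 μM to 0.3 nM final), then glyoxal-fixed and immunostained for phospho-ERK with a fluorescent secondary read at 800 nm. IC50 by Sigmoid-Emax regression, with DMSO as 100% and 1 μM trametinib as 0%.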

[2] = tested on: human G12D mutant KRAS-positive pancreatic cancer line AsPC-1; assay: Non-anchorage-dependent cell growth inhibition, spheroid 3D cell culture (Test Example 3); assay type: cell-based; conditions: Homo sapiens, ASPC1, 144 h, AsPC-1 spheroid 3D culture, 6 days, CellTiter Glo 2.0
Procedure, shortened: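 AsPC-1 spheroids, 5×10^2 cells per well on low-adhesion round-bottom plates in RPMI 1640/10% FBS, dosed next day at 10 or 6 points spanning 10 μM to 0.3 nM final for 6 days at 37° C., 5% CO2. Viability by CellTiter Glo 2.0 luminescence; IC50 by Sigmoid-Emax regression, DMSO 100% and cell-free medium 0%.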

T1 sequence (P01116 1-188 isoform P01116-2 G12D): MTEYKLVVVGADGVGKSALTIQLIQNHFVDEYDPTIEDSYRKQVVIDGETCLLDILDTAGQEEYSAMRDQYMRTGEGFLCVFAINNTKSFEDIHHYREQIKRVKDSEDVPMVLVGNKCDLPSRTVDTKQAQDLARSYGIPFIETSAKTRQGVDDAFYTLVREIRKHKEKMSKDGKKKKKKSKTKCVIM

Row | DC50 (KRAS G12D protein) | IC50 [1] | IC50 [2] | Compound
1 | 63 nM | 12 nM | 9 nM | Cc1ncsc1-c1ccc([C@H](CO)NC(=O)[C@@H]2C[C@@H](O)CN2C(=O)[C@H](C(C)C)n2cc(-c3ccc(COc4c(-c5c(C)c(F)cc6[nH]ncc56)c(C5CC5)cc5c(N(C)[C@H]6CCNC6)nc(OC[C@H](C)F)nc45)cc3)nn2)cc1 (atropisomer, axis not shown) [Example 35]
2 | 10 nM | 4 nM | 15 nM | CO[C@@H](C)COc1cc(N2C[C@@H]3C[C@H]2CN3)c2cc(C3CC3)c(-c3c(C)c(F)cc4[nH]ncc34)c(OCc3ccc(-c4cn([C@H](C(=O)N5C[C@H](O)C[C@H]5C(=O)N[C@@H](CO)c5ccc(-c6scnc6C)cc5)C(C)C)nn4)cc3)c2n1 [Example 55]
3 | 53 nM | 21 nM | 13 nM | Cc1ncsc1-c1ccc([C@H](CO)NC(=O)[C@@H]2C[C@@H](O)CN2C(=O)[C@H](C(C)C)n2cc(-c3ccc(COc4c(-c5c(C)c(F)cc6[nH]ncc56)c(C5CC5)cc5c(N(C)[C@H]6CCNC6)nc(OCC(C)C)nc45)cc3)nn2)cc1 (atropisomer, axis not shown) [Example 34]
4 | 68 nM | 7 nM | 7 nM | Cc1c(F)cc2[nH]ncc2c1-c1c(C2CC2)cc2c(N(C)[C@H]3CCNC3)cc(OC[C@@H]3CCCO3)nc2c1OCc1ccc(-c2cn([C@H](C(=O)N3C[C@H](O)C[C@H]3C(=O)N[C@@H](CO)c3ccc(-n4ccnc4C)cc3)C(C)C)nn2)cc1 (atropisomer, axis not shown) [Example 27]
